In assay [1] the test system is FGF signaling (d2EGFP reporter). Put plainly: BCI analog SAR: d2EGFP intensity in transgenic zebrafish embryos by densitometry. Format: in vivo. The conditions noted are these: 20 μM, 24 hpf embryos, 6 h; for Activity (BCI = 100): d2EGFP intensity in the dorsal region. The protocol: Transgenic zebrafish embryos (24 hpf) were treated with 20 μM solution of BCI analogs in 0.5% aq DMSO and fluorescence photomicrographs were taken after 6 h. The effectiveness of BCI analogs was evaluated by densitometry (ImageJ) of d2EGFP intensity in the dorsal region.

Assay [2] relates to FGF signaling (Tg(Dusp6:d2EGFP)pt6 reporter). The experiment in a line: Transgenic zebrafish chemical screen, d2EGFP fluorescence. Type of assay: in vivo. To be noted: for d2EGFP fluorescence in treated transgenic embryos: 24 hpf embryos, 6-8 hours, analogs even at four-fold higher concentrations. How it is done: Tg(dusp6:d2EGFP)pt6 embryos were obtained by natural crossings and incubated at 28.5° C. until they reached 24 hpf. Five transgenic embryos were placed into each well from a 96-well plate in 200 μl of E3, and a 0.5% DMSO solution was added along with compound from each library at 10 μM. The NCI diversity set (NCl/NIH), the Natural Products library (MicroSource Discovery Systems Inc.) and Phosphatase targeted set (Chembridge) were screened in this study. (E)-2-Benzylidene-3-(cyclohexylamino)-2,3-dihydro-1H-inden-1-one (BCI; also known as NSC150117) was identified as a compound that enhanced fluorescence in treated transgenic embryos. Treated embryos were photographed under the same settings for exposure, gain and magnification for each picture using a MZFLIII (Leica) microscrope and fluorescent illumination for GFP using endow cube (Chroma Technology Corp., Rockingham, Vt.). Qimaging software and the Retiga Exi camera (Qimaging, Burnaby, BC Canada) were used to capture the images.
We previously described the generation of a transgenic zebrafish line, (Tg(Dusp6:d2EGFP)pt6) that expresses destabilized green fluorescent protein (d2EGFP) under the control of FGF signaling (Molina, G. A., et al. BMC Dev Biol 7, 62 (2007)). Using Tg(Dusp6:d2EGFP) embryos as a biosensor for FGF signaling, we screened over 5000 diverse compounds assembled from chemical libraries for small molecule modulators of this pathway. Five transgenic embryos at 24 hours post fertilization (hpf) were arrayed into each well of a 96-well plate containing test compounds at 10 μM. d2EGFP intensity in treated embryos was visually analyzed and compared to vehicle control (0.5% DMSO) after 6-8 hours. […] To confirm that BCI hyperactivated FGF signaling, we treated embryos prior to gastrulation (5 hpf), and we analyzed by whole mount in situ hybridization, the expression of ntl (zebrafish brachyury), a known FGF target gene (Latinkic, B. V. et al. Genes Dev 11, 3265-76 (1997)). […] We next determined the BCI structural features required to enhance FGF signaling. Two analogs, (E)-2-benzylidene-2,3-dihydro-1H-inden-1-one (BI) lacking the cyclohexylamino group, and 3-(cyclohexylamino)-2,3-dihydro-1H-inden-1-one (ICD) lacking the benzylidene group were synthesized).

Assay [3] addresses T1, recombinant His-tagged Dusp6 (Homo sapiens, UniProt Q16828).
T1 construct: His
T1 sequence (Q16828 1-381): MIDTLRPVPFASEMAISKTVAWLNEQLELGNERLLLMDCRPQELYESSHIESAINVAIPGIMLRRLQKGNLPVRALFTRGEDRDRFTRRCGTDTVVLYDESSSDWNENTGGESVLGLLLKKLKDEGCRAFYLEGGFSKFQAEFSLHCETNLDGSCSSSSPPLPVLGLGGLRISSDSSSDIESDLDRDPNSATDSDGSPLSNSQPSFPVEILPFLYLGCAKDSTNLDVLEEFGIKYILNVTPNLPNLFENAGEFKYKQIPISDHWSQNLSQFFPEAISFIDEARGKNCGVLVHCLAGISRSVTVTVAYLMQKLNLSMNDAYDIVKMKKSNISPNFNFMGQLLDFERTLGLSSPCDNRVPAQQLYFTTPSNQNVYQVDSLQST
The experiment in a line: In vitro pERK2 dephosphorylation assay (Western blot). Format: biochemical. To be noted: 100 μM. The protocol:
ERK dephosphorylation assays were performed as described previously with several modifications (Lazo, J. S. et al. J Pharmacol Exp Ther 322, 940-7 (2007)). Briefly, recombinant His-tagged Dusp6 (1.5 ng) was incubated for 20 minutes at 25° C. in the presence of 100 μM BCI, 100 μM ICD or 1 mM sodium orthovanadate. Tyrosine and threonine phosphorylated ERK2 (New England Biolabs; 10 ng) was added and reaction mixture (30 mM Tris-HCl, pH 7.0, 75 mM NaCl, 0.67 mM EDTA, 1 mM DTT and 0.033% bovine serum albumin) was incubated at 25° C. for a further 60 min. ERK desphosphorylation was determined by Western blotting using 10% Tris-glycine gels and a monoclonal phospho-p44/42 MAPK antibody (Cell Signaling) at 1:1000 dilution. Total ERK was measured as a loading control using an anti-ERK antibody (Cell Signaling).
On the technique in general: A western blot detects proteins with antibodies after separation by electrophoresis.

The structures appear in SMILES notation.

For the molecule `O=C1/C(=C/c2ccccc2)C(NC2CCCCC2)c2ccccc21` (centres unmarked) [Compound 3, (E)-2-benzylidene-3-(cyclohexylamino)-2,3-dihydro-1H-inden-1-one], the “Activity (BCI = 100)” value in assay [1] (listed as 3 (BCI)) came to 100. For the same molecule, the “d2EGFP fluorescence in treated transgenic embryos” value in assay [2] was “enhanced d2EGFP fluorescence in a concentration-dependent manner”. For the same molecule, in assay [2] (BCI 10 μM, Fgf8-deficient embryos), the “d2EGFP expression in the MHB of Tg(Dusp6:d2EGFP); ace mutant embryos” value is recorded as “did not induce d2EGFP expression”. The “suppression of Dusp6-mediated pERK2 dephosphorylation” value in assay [3] is reported as “specifically suppressed Dusp6 activity”.

Take `O=C1CC(NC2CCCCC2)c2ccccc21` (centres unmarked) [Compound 17, 3-(Cyclohexylamino)-2,3-dihydro-1H-inden-1-one]: in assay [1], the “in vivo activity relative to BCI, in words” value was “inactive” and the “Activity (BCI = 100)” value is 0. In addition, the “d2EGFP fluorescence in treated transgenic embryos” value in assay [2] is “inactive”. Moreover, in assay [3], the “suppression of Dusp6-mediated pERK2 dephosphorylation” value is given as “did not”.

The values are drawn from patent US9127016B2, “Small molecule inhibitors of Dusp6 and uses therefor” (University of Pittsburgh—Of the Commonwealth System of …, priority 2009, dated 2015).
